The source made the active and inactive calls.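 Rule for the calls: active = EC50 at or below 20 µM; inactive = the rest.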
Test system: hiPSC single-cell survival, DAPI nuclei count imaging
Experiment: enhancers of single-cell hiPSC survival, dose response, imaging, fluorescence imaging, uHTS hits (AID 624145)

Row | Structure (SMILES) | EC50
1 | CNc1cc(Cl)c2nonc2c1[N+](=O)[O-] | > 80 µM (inactive)
2 | CC1(C)Cc2c(C#N)c(NCC3CCCO3)nc(-c3ccco3)c2CO1 (stereo not drawn) | 42.8 µM (inactive)
3 | O=C(Nc1ccncc1)c1c(F)cccc1F | 13.6 µM
4 | CC(Oc1ccccc1)C(=O)Nc1nc(-c2ccncc2)cs1 (stereo not drawn) | 42.9 µM (inactive)
5 | COCCNC(=O)c1ccc(-c2cn[nH]c2)c2ccoc12 | 19.2 µM
6 | CCN1C/C(=C\c2cccc([N+](=O)[O-])c2)C(=O)/C(=C/c2cccc([N+](=O)[O-])c2)C1 | > 80 µM (inactive)
7 | CC1C/C(=C/c2ccncc2)C(=O)/C(=C/c2ccncc2)C1 (stereo not drawn) | > 80 µM (inactive)
8 | CCCCCCC[C@@H](C/C=C/CCC(=O)N(C)C/C(=C/Cl)C/C(=C\C(=O)N1CC(OC)=CC1=O)OC)OC | 0.525 µM
9 | CC(OC(=O)c1ccc2c(=O)n3c(nc2c1)CCC3)C(=O)Nc1ccc(C(N)=O)cc1 (stereo not drawn) | 28.4 µM (inactive)
10 | CN1C2CCC1/C(=C/c1ccccn1)C(=O)/C2=C\c1ccccn1 | > 80 µM (inactive)
11 | CC(OC(=O)c1ccc(S(=O)(=O)N2CCCCC2)cc1)C(=O)Nc1ccc(C(N)=O)cc1 (stereo not drawn) | 10.5 µM
12 | C=C1C(=O)OC2CC(C)C3C=CC(=O)C3(C)C(O)C12 (stereo not drawn) | > 80 µM (inactive)
13 | O=S(=O)(c1cccc2cnccc12)N1CCNCC1 | 2.05 µM
14 | C=C1[C@@H](C)[C@H]2[C@H](Cc3ccccc3)NC(=O)[C@]23OC(=O)/C=C/[C@H](O)CCC[C@@H](C)C/C=C/[C@H]3[C@@H]1O | 12.5 µM
15 | O=C(Nc1ccncc1)c1cc(S(=O)(=O)N2CCCC2)ccc1Cl | 13.6 µM
16 | CCN1C/C(=C/c2cccc([N+](=O)[O-])c2)C(=O)/C(=C/c2cccc([N+](=O)[O-])c2)C1 | > 80 µM (inactive)
17 | CCOCCCNC(=O)/C(C#N)=C/c1ccc([N+](=O)[O-])o1 | > 80 µM (inactive)
18 | O=C(COc1ccccc1)Nc1nc(-c2ccncc2)cs1 | 29.3 µM (inactive)
19 | O=c1c(Cl)c(Cl)cnn1Cc1nnc(-c2ccccc2Br)o1 | > 80 µM (inactive)
20 | CN1Cc2cnnn2-c2ccccc2C1C#N (stereo not drawn) | 26.5 µM (inactive)
21 | C=C1C(C)C2C(Cc3ccccc3)NC(=O)C23C(OC(C)=O)C=CC(C)(O)CC(C)CC=CC3C1O (stereo not drawn) | > 80 µM (inactive)
22 | C=C1C(C)C2C(Cc3ccccc3)NC(=O)C23OC(=O)/C=C/C(O)CCCC(C)C/C=C/C3C1O (stereo not drawn) | 12.5 µM
23 | Cc1c(C(=O)OCC(=O)Nc2ccc(C(N)=O)cc2)cccc1[N+](=O)[O-] | > 80 µM (inactive)
24 | CC(C)(C)NC(=O)Cn1nnc(-c2ccccc2NC(=O)c2cnccn2)n1 | > 80 µM (inactive)
25 | N#C/C(=C/c1cccc([N+](=O)[O-])c1)c1nnc2n1CCCCC2 | > 80 µM (inactive)
26 | O=C(Nc1ccncc1)c1ccccc1[N+](=O)[O-] | 33.4 µM (inactive)
27 | O=C(Nc1nc(-c2ccncc2)cs1)C1COc2ccccc2O1 (stereo not drawn) | 1.86 µM

Row | Structure (SMILES) | EC50
28 | CC1(C)Cc2c(C#N)c(SCC(=O)c3ccccc3)nc(N3CCOCC3)c2CS1 | 39.3 µM (inactive)
29 | C=C(C)[C@@]12OC3(c4ccccc4)O[C@@H]1C1[C@@H]4O[C@]4(CO)[C@@H](O)[C@]4(O)C(=O)C(C)=C[C@H]4[C@@]1(O3)[C@H](C)[C@H]2OC(=O)/C=C/C=C/c1ccccc1 (stereo partly drawn) | > 80 µM (inactive)
30 | O=C(Cc1ccc(Br)cc1)Nc1ccc2[nH]ncc2c1 | 19.1 µM
31 | O=C(NCC1CC1)c1ccc(-c2cn[nH]c2)c2ccoc12 | 14.2 µM
32 | O=C(NCc1ccccc1)c1ccc(-c2cn[nH]c2)c2ccoc12 | 1.1 µM
33 | CC(OC(=O)c1cccc(S(=O)(=O)N2CCN(C)CC2)c1)C(=O)Nc1ccc(C(N)=O)cc1 (stereo not drawn) | 35.6 µM (inactive)
34 | COc1ccccc1Sc1nc(-c2ccccn2)ncc1OC | 45.7 µM (inactive)
35 | COc1ccc2c(c1)c(=O)c(C(=O)c1ccc(Cl)cc1)cn2CC(=O)Nc1ccc(F)cc1 | 18.6 µM
36 | O=C(Nc1ccncc1)c1c(F)c(F)c(F)c(F)c1F | 5.46 µM
37 | O=C1/C(=C/c2ccncc2)CCC/C1=C\c1ccncc1 | > 80 µM (inactive)
38 | CCC(C(=O)Nc1ccc2[nH]ncc2c1)c1ccccc1 (stereo not drawn) | 6.49 µM
39 | CCCCn1c(=O)[nH]c(=O)c2c1nc(Cn1ncc(Cl)c(Cl)c1=O)n2CCC | > 80 µM (inactive)
40 | O=C(Nc1ccncc1)c1ccccc1F | 28.2 µM (inactive)
41 | NC(=O)c1ccc(NC(=O)CCC(=O)c2cccs2)cc1 | 7.14 µM
42 | CN1C/C(=C/c2cccnc2)C(=O)/C(=C/c2cccnc2)C1 | > 80 µM (inactive)
43 | O=C(C(O)c1ccc(Br)cc1)N1CCC(Nc2ccc3[nH]ncc3c2)CC1 (stereo not drawn) | 5.88 µM
44 | CCn1c(Cl)c(C=O)s/c1=N\S(=O)(=O)c1ccccc1 | > 80 µM (inactive)
45 | COC(=O)CCSc1cc([N+](=O)[O-])cc2c1c(C1OCCS1)nn2-c1ccccc1 (stereo not drawn) | > 80 µM (inactive)
46 | C=C1C(=O)O[C@@H]2C[C@@H](C)[C@@H]3C=CC(=O)[C@@]3(C)[C@@H](O)[C@H]12 | > 80 µM (inactive)
47 | c1ccc(CN2CCN(c3nc(NCc4ccco4)c4ccccc4n3)CC2)cc1 | 5.81 µM
48 | CCCSc1nc(N2CCOCC2)c2c(c1C#N)CC(C)(C)SC2 | > 80 µM (inactive)
49 | CN(C(=O)COC(=O)c1nc(Cl)c(Cl)c(Cl)c1Cl)C1CCS(=O)(=O)C1 (stereo not drawn) | > 80 µM (inactive)
50 | Cc1nnc2n(C3CCCCC3)c(=O)c3c4c(sc3n12)COC(C)(C)C4 | > 80 µM (inactive)
51 | CCCNC(=O)COC(=O)c1ccccc1C(=O)c1ccc(Cl)c([N+](=O)[O-])c1 | > 80 µM (inactive)
52 | CN(Cc1ccc(C(F)(F)F)cc1)C(=O)[C@H]1O[C@@H](n2cnc3c(N)ncnc32)[C@H](O)[C@@H]1O | 20.8 µM (inactive)
53 | O=C(Nc1ccncc1)c1cc(S(=O)(=O)N2CCOCC2)ccc1Cl | 13.8 µM
